The species entered for data set [1] is Oryctolagus cuniculus. The data set is described as follows: (§1) Inhibition of rabbit skeletal muscle G-actin polymerization at 0.5 uM preincubated for 50 sec followed by ATP addition and measured for 600 sec by fluorescence spectrophotometer method relative to control. As to conditions: time 650.0 sec.
Data set [2] in a line: Partition coefficient, logP of compound. The data set is classed as physicochemical. The settings on record: octanol/water.
Data set [3] is filed under the species Homo sapiens. Description: Induction of F-actin depolymerization (unknown origin) at 10 uM measured for 900 sec in presence of ATP by fluorescence spectrophotometer method relative to MycB.
The subject of data set [4] is Cell membrane. Description: Disruption of membrane projections in human SK-OV-3 cells at 1 uM. The data set is classed as cell membranes.
The test system of data set [5] is A549. Description: Inhibition of cell invasion in human A549 cells assessed as decrease in wound density at 10 uM after 50 hrs by IncuCyte live-cell imaging analysis. The data set is classed as functional, cell-based.
Data set [6] has as its system Cell membrane. The data set is described as follows: Disruption of membrane in human SK-OV-3 cells assessed as F-actin aggregates formation at 1 uM. The data set is classed as cell membranes.
A short description of data set [7]: as §1. Details: species or system Oryctolagus cuniculus.
Data set [8] has as its system L1210. Description: Cytotoxicity against mouse L1210 cells. In kind it is functional, cell-based.
Data set [9] has as its system KB. Description: Cytotoxicity against human KB cells. The data set is classed as functional, cell-based.
The test system of data set [10] is Cell membrane. Description: Disruption of membrane in human SKOV3 cells assessed as F-actin aggregates formation at 0.1 uM. In kind it is cell membranes. The settings on record: SK-OV-3.
Data set [11] concerns Cell membrane. The data set is described as follows: Disruption of membrane projections in human SK-OV-3 cells at 0.1 uM. In kind it is cell membranes.
Data set [12] relates to A549. The data set is described as follows: Inhibition of cell invasion in human A549 cells assessed as decrease in wound density at 0.1 uM after 50 hrs by IncuCyte live-cell imaging analysis. In kind it is functional, cell-based.
The subject of data set [13] is B16. Description: Cytotoxicity against mouse B16 cells. In kind it is functional, cell-based.

The structures appear in SMILES notation. Active and inactive are the calls of the source. The rule behind the calls is not given here. Where only a bound is given, the exact number is not on record here.

As a reminder, the inhibition is the drop in the measured response relative to a control, in per cent. As a reminder, the logP is a log measure of how a compound divides between an organic and an aqueous phase. What is called IC50 is the midpoint of a concentration-inhibition curve. A lower IC50 goes with greater potency.

Consider `CCC(=O)O[C@@H](C[C@H](OC)[C@@H](C)CC[C@@H](OC(=O)[C@H]1CCCO1)[C@H](C)[C@H](OC)[C@H](C)/C=C/N(C)C=O)C(C)C`, for which the inhibition in [1] stood at 72%. Further, in data set [2], the logP worked out at 5.3. Besides, the Activity in [3] worked out at 75%.
In the case of `CCN(C=O)/C=C/[C@@H](C)[C@@H](OC)[C@@H](C)[C@@H](CC[C@H](C)[C@H](C[C@H](OC(=O)CCCN)C(C)C)OC)OC(=O)[C@H]1CCCO1`, the result in data set [4] and in data set [6] was Active. The same molecule returned a logP in data set [2] of 4.55. Besides, in data set [5], the inhibition result is “Active”.
`CCC(=O)O[C@@H](C[C@H](OC)[C@@H](C)CC[C@@H](OC(=O)[C@@H]1CCCO1)[C@H](C)[C@H](OC)[C@H](C)/C=C/N(C)C=O)C(C)C` showed an inhibition in data set [1] of 50%. Moreover, the Activity in data set [3] worked out at 67%.
In the case of `CCC(=O)O[C@@H](C[C@H](OC)[C@@H](C)CC[C@@H](OC(=O)C(C)C)[C@H](C)[C@H](OC)[C@H](C)/C=C/N(C)C=O)C(C)C`, in data set [1], the inhibition came to 21%. In addition, the Activity in [3] worked out at 6%.
As to `CCC(=O)O[C@@H](C[C@H](OC)[C@@H](C)CC[C@@H](OC(=O)c1ccco1)[C@H](C)[C@H](OC)[C@H](C)/C=C/N(C)C=O)C(C)C`, the inhibition in [1] was found to be 43%. The Activity in data set [3] amounted to 41%.
The matching figures for `CC[C@@H](O)C[C@H](OC)[C@@H](C)CC[C@@H](OC(=O)C(C)C)[C@H](C)[C@H](OC)[C@H](C)/C=C/N(C)C=O`: 30% and 0%.
The matching figures for `CCC(=O)O[C@@H](C[C@H](OC)[C@@H](C)CC[C@@H](OC(=O)C(C)C)[C@H](C)[C@H](OC)[C@H](C)/C=C/N1CCCC1=O)C(C)C`: 29% and 26%.
For the molecule `CO[C@@H]([C@@H](C)[C@@H](CC[C@H](C)[C@H](C[C@H](OC(=O)CCCN)C(C)C)OC)OC(=O)[C@H]1CCCO1)[C@H](C)/C=C/N(C)C=O`, in [1], the inhibition was 53%. In data set [2], this molecule returned a log partition coefficient (logP) of 4.18. Also, the inhibition entry in [5] was “Active”. The Activity in data set [3] came out at 58%.
Consider `CCC(=O)O[C@H](CC)C[C@H](OC)[C@@H](C)CC[C@H](OC(=O)CC)[C@H](C)[C@H](OC)[C@H](C)/C=C/N(C)C=O`, for which the half-maximal inhibitory concentration (IC50) in data set [7] was 5500 nM. For the same molecule, in [3], the Activity is 17%.
On to `CCC(=O)O[C@@H](C[C@H](OC)[C@@H](C)CC[C@@H](OC(=O)C(C)C)[C@H](C)[C@H](OC)[C@H](C)/C=C/N(C)C=O)C1CCCCC1`, for which the inhibition in data set [1] is 52%. Also, the Activity in [3] worked out at 45%.
On to `CO[C@@H](C[C@@H]1OC(=O)C[C@@H](O)C[C@H](O)C[C@H](O)[C@H](C)[C@@H](OC)c2coc(n2)-c2coc(n2)-c2coc(n2)/C=C/CC[C@H]1C)[C@@H](C)CCC(=O)[C@H](C)[C@@H](C/C=C/N(C)C=O)OC`, for which, in data set [8], the IC50 was less than 1 nM.
In the case of `CCC(=O)O[C@@H](C[C@H](OC)[C@@H](C)CC[C@@H](OC(=O)C1CCCC1)[C@H](C)[C@H](OC)[C@H](C)/C=C/N(C)C=O)C(C)C`, in data set [1], the inhibition was 53%. Further, in data set [3], the Activity came out at 39%.
The matching figures for `CCC(=O)O[C@@H](C[C@H](OC)[C@@H](C)CC[C@@H](OC(=O)C(C)C)[C@H](C)[C@H](OC)[C@H](C)/C=C/N(C=O)CC)C(C)C`: 85% and 87%.
In the case of `CCC(=O)O[C@H](CC)C[C@H](OC)[C@@H](C)CC[C@@H](OC(=O)CC)[C@H](C)[C@H](OC)[C@H](C)/C=C/N(C)C=O`, the IC50 in data set [7] is 1000 nM. Also, in data set [3], the Activity came to 42%.
`CCC(=O)O[C@@H](C[C@H](OC)[C@@H](C)CC[C@@H](OC(=O)[C@H]1CCCN1C)[C@H](C)[C@H](OC)[C@H](C)/C=C/N(C)C=O)C(C)C`: the inhibition in data set [1] amounted to 45%. For the same molecule, in data set [3], the Activity came out at 25%.
As for `CCC(=O)O[C@@H](C[C@H](OC)[C@@H](C)CC[C@@H](OC(=O)C(C)C)[C@H](C)[C@H](OC)[C@H](C)/C=C/N(C=O)CC(F)(F)F)C(C)C`, the inhibition in data set [1] was 81%. The Activity in [3] turned out to be 53%.
For `CO[C@@H]1CC2=CC(=O)O[C@H](C2)[C@H](C)[C@H](OC)C[C@@H](OC)/C=C/[C@H](C)[C@@H](OC)C[C@@H](OC)/C=C/[C@H](C)[C@@H]([C@@H](C)[C@@H](OC)[C@@H](C)CCC(=O)[C@H](C)[C@@H](C/C=C/N(C)C=O)OC)OC(=O)/C=C/C=C(\C)C1`, the IC50 in data set [9] stood at 100 nM.
Regarding `COC[C@@H](OC)C(=O)O[C@H](CC[C@H](C)[C@H](C[C@@H]1OC(=O)C[C@@H](O)C/C=C/C(=O)[C@H](C)[C@H](OC)c2coc(n2)-c2coc(n2)-c2coc(n2)/C=C/C[C@H](OC)[C@H]1C)OC)[C@H](C)[C@H](OC(C)=O)[C@H](C)/C=C/N(C)C=O`, the outcome in data set [10] and in data set [11] was Active. Besides, the inhibition result in [12] is “Active”. In addition, the IC50 in [13] was 0.5 nM.
`CCC(=O)O[C@@H](C[C@H](OC)[C@@H](C)CC[C@@H](OC(=O)C(C)C)[C@H](C)C(OC)[C@H](C)/C=C/N(C=O)C1CC1)C(C)C` (single isomer, unassigned) displayed an inhibition in data set [1] of 77%. The Activity in [3] was determined as 56%.
In the same order, the values of `CCC(=O)O[C@@H](C[C@H](OC)[C@@H](C)CC[C@@H](OC(=O)C1CCCCC1)[C@H](C)[C@H](OC)[C@H](C)/C=C/N(C)C=O)C(C)C` are 65% and 20%.
The matching figures for `CCC(=O)O[C@@H](C[C@H](OC)[C@@H](C)CC[C@@H](OC(=O)C1CCC1)[C@H](C)[C@H](OC)[C@H](C)/C=C/N(C)C=O)C(C)C`: 67% and 52%.
With `CO[C@H]([C@H](C)/C=C/N(C)C=O)[C@@H](C)C(=O)CC[C@H](C)[C@H](C[C@@H]1OC(=O)C[C@@H](OC(N)=O)C[C@H](C)C[C@H](O)[C@H](C)[C@@H](OC)c2coc(n2)-c2coc(n2)-c2coc(n2)/C=C/C[C@H](OC)[C@H]1C)OC` [KABIRAMIDE C], in [8], the half-inhibitory concentration (IC50) stood at 10 nM.
The molecule `CCC(=O)O[C@@H](C[C@H](OC)[C@@H](C)CC[C@@H](OC(=O)C(C)C)[C@H](C)[C@H](OC)[C@H](C)/C=C/N1CCCCC1=O)C(C)C` yielded an inhibition in data set [1] of 18%. For the same molecule, in [3], the Activity is 14%.
In turn, `CCCN(C=O)/C=C/[C@@H](C)[C@@H](OC)[C@@H](C)[C@@H](CC[C@H](C)[C@H](C[C@H](OC(=O)CC)C(C)C)OC)OC(=O)C(C)C` registered an inhibition in [1] of 40%. For the same molecule, the Activity in data set [3] is 32%.
Regarding `CCC(=O)O[C@@H](C[C@H](OC)[C@@H](C)CC[C@@H](OC(=O)C(C)C)[C@H](C)[C@H](OC)[C@H](C)/C=C/N1CCC1=O)C(C)C`, in [1], the inhibition was found to be 30%. The Activity in data set [3] turned out to be 12%.
In the case of `CO[C@@H]1C/C=C/c2nc(co2)-c2nc(co2)-c2nc(co2)[C@@H](C)CC(=O)CCC[C@@H](O)CC(=O)O[C@H](C[C@@H](OC)[C@@H](C)CCC(=O)[C@H](C)[C@H](OC(C)=O)[C@H](C)/C=C/N(C)C=O)[C@H]1C`, half-maximal inhibition in [8] (IC50) was put at 10 nM.
For `CCC(=O)O[C@H](CC)C[C@H](OC)[C@@H](C)CC[C@@H](OC(=O)C(C)C)[C@H](C)[C@H](OC)[C@H](C)/C=C/N(C)C=O`, the inhibition in data set [1] came to 40%. In addition, the Activity in data set [3] was 33%.
Consider `CCC(=O)O[C@@H](C[C@H](OC)[C@@H](C)CC[C@@H](OC(=O)[C@H]1CCCO1)[C@H](C)[C@H](OC)[C@H](C)/C=C/N(C=O)CC)C(C)C`, for which the inhibition in data set [1] stood at 63%. The same molecule displayed a logP in data set [2] of 5.67. The Activity in data set [3] was found to be 77%.

(Values after ChEMBL document CHEMBL5543103, “Toward a Template for Synthetic Actin-Targeting Macrolide Analogues That Inhibit Cancer Cell Invasiveness” (J Med Chem, 2024).)
